test system: HBV; experiment: HBV infection in HepG2-NTCP cells (HBeAg AlphaLISA in supernatants); type: cell-based; details: Hepatitis B virus, 192 h; HBV infection of HepG2-NTCP cells; HBeAg in supernatants at day 8 post infection; read-out: Cellular EC50
Summary of the method: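 Readout was day-8 supernatant HBeAg by AlphaLISA, with EC50 set against DMSO controls and binned A<0.1 μM, B 0.1-1 μM, C>1 μM. Compounds were added 2 h before HBV (2000 GE/cell, 4% PEG, 0.5% DMSO) to HepG2-NTCP A3 cells; from day 1 medium held 2.5% DMSO.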

EC50 | Compound
< 100 nM | CCOC(=O)Nc1cc(-c2cc3c(cc2F)N(c2ccccc2)C[C@@H](C2CCCCC2)N(C)S3(=O)=O)sc1C(=O)O [Example 265, (R)-5-(3-cyclohexyl-7-fluoro-2-methyl-1,1-dioxido-5-phenyl-2,3,4,5-tetrahydrobenzo[f][1,2,5]thiadiazepin-8-yl)-3-((ethoxycarbonyl)amino)thiophene-2-carboxylic acid]
< 100 nM | CC(C)COC(=O)Nc1cc(-c2cc3c(cc2F)N(c2ccccc2)C[C@@H](C2CCCCC2)N(C)S3(=O)=O)sc1C(=O)O [Example 266]
< 100 nM | CC(C)CS(=O)(=O)Nc1ccc(-c2cc3c(cc2Cl)N(c2ccccc2)C[C@@H](C2CCCCC2)N(C)S3(=O)=O)cc1C(=O)O [Example 267, (R)-5-(7-chloro-3-cyclohexyl-2-methyl-1,1-dioxido-5-phenyl-2,3,4,5-tetrahydrobenzo[f][1,2,5]thiadiazepin-8-yl)-2-((2-methylpropyl)sulfonamido)benzoic acid]
< 100 nM | CN1[C@H](C2CCCCC2)CN(c2ccccc2)c2cc(Cl)c(-c3ccc(NS(=O)(=O)CCC(F)(F)F)c(C(=O)O)c3)cc2S1(=O)=O [Example 268]
< 100 nM | CN1[C@H](C2CCCCC2)CN(c2ccccc2)c2cc(Cl)c(-c3ccc(NS(=O)(=O)Cc4ccccc4)c(C(=O)O)c3)cc2S1(=O)=O [Example 269]
< 100 nM | CN1[C@H](C2CCCCC2)CN(c2ccccc2)c2cc(Cl)c(-c3ccc(NS(=O)(=O)CCc4ccccc4)c(C(=O)O)c3)cc2S1(=O)=O [Example 270]
< 100 nM | CN1[C@H](C2CCCCC2)CN(c2ccccc2)c2cc(Cl)c(-c3ccc(NS(=O)(=O)CC4CCC4)c(C(=O)O)c3)cc2S1(=O)=O [Example 272]
< 100 nM | CC(C)CS(=O)(=O)Nc1cc(-c2cc3c(cc2Cl)N(c2ccccc2)C[C@@H](C2CCCCC2)N(C)S3(=O)=O)sc1C(=O)O [Example 276]

Continued, compound first:

Compound | EC50
CN1[C@H](C2CCCCC2)CN(c2ccccc2)c2cc(Cl)c(-c3cc(NC(=O)OC4CC4)c(C(=O)O)s3)cc2S1(=O)=O [Example 249] | < 100 nM
CN1[C@H](C2CCCCC2)CN(c2ccccc2)c2cc(Cl)c(-c3cc(NC(=O)OC4CCC4)c(C(=O)O)s3)cc2S1(=O)=O [Example 250] | < 100 nM
CN1[C@H](C2CCCCC2)CN(c2ccccc2)c2cc(Cl)c(-c3cc(NC(=O)OC4CCCC4)c(C(=O)O)s3)cc2S1(=O)=O [Example 251] | < 100 nM
CN1[C@H](C2CCCCC2)CN(c2ccccc2)c2cc(Cl)c(-c3cc(NC(=O)OCC4CC4)c(C(=O)O)s3)cc2S1(=O)=O [Example 252] | < 100 nM
CN1[C@H](C2CCCCC2)CN(c2ccccc2)c2cc(Cl)c(-c3cc(NC(=O)OCC4CC(F)(F)C4)c(C(=O)O)s3)cc2S1(=O)=O [Example 253] | < 100 nM
CN1[C@H](C2CCCCC2)CN(c2ccccc2)c2cc(Cl)c(-c3cc(NC(=O)OCC4(C)CC4)c(C(=O)O)s3)cc2S1(=O)=O [Example 254] | < 100 nM
CN1[C@H](C2CCCCC2)CN(c2ccccc2)c2cc(Cl)c(-c3cc(NC(=O)OCC(C)(C)C)c(C(=O)O)s3)cc2S1(=O)=O [Example 255] | < 100 nM
CN1[C@H](C2CCCCC2)CN(c2ccccc2)c2cc(Cl)c(-c3cc(NC(=O)OCC(C)(C)C#N)c(C(=O)O)s3)cc2S1(=O)=O [Example 256] | < 100 nM
CC(C)OCCOC(=O)Nc1cc(-c2cc3c(cc2Cl)N(c2ccccc2)C[C@@H](C2CCCCC2)N(C)S3(=O)=O)sc1C(=O)O [Example 257] | < 100 nM
CO[C@H](C)COC(=O)Nc1cc(-c2cc3c(cc2Cl)N(c2ccccc2)C[C@@H](C2CCCCC2)N(C)S3(=O)=O)sc1C(=O)O [Example 259] | < 100 nM
COCC(C)(C)COC(=O)Nc1cc(-c2cc3c(cc2Cl)N(c2ccccc2)C[C@@H](C2CCCCC2)N(C)S3(=O)=O)sc1C(=O)O [Example 260] | 100 to 1000 nM
COC(C)(C)CCOC(=O)Nc1cc(-c2cc3c(cc2Cl)N(c2ccccc2)C[C@@H](C2CCCCC2)N(C)S3(=O)=O)sc1C(=O)O [Example 261] | 100 to 1000 nM

Source: US20240368096A1 (Enanta Pharmaceuticals, Inc., priority 2022, published 2024)
